One compound from US20250340538A1, “IMIDAZOLONE DERIVATIVES AS INHIBITORS OF PROTEIN KINASES IN PARTICULAR DYRK1A, CLK1 AND/OR CLK4” (PERHA PHARMACEUTICALS, priority 2021, published 2025) can be followed below.

The structures appear in SMILES notation. Like-named read-outs stand apart in the source and are kept apart here.

Common to all, as to type: biochemical
The target in one assay is T1, CLK1 (Homo sapiens, UniProt P49759).
T1 construct: GST-fusion or His-tag (not specified per kinase); purchased ProQinase GmbH; host or cells: Sf9 insect cells or E. coli (not specified per kinase)
T1 sequence (P49759 whole entry, the tested form may be a part): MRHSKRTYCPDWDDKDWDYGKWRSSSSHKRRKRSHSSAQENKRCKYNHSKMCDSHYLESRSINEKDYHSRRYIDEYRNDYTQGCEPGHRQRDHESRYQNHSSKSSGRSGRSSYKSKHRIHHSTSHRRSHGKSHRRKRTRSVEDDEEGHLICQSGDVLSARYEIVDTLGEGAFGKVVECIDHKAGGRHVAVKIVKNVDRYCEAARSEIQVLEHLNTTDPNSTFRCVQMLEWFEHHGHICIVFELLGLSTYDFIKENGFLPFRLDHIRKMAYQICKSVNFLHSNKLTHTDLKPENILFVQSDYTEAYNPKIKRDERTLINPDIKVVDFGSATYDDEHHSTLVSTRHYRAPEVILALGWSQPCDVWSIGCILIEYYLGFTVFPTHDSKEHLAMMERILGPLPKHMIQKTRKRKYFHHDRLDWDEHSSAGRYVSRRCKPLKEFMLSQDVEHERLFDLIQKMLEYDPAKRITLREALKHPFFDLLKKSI
Briefly: Radiometric protein kinase assay (33PanQinase Activity Assay), CLK1. The following applies: read-out: Potency Class CLK1. An outline of the steps:
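Human kinase (Sf9- or E. coli-expressed, tagged, purified) + substrate + [γ-33P]-ATP; cpd 10 μM→30 nM, 10 pts, 1% DMSO; 30 °C, 60 min; H3PO4 stop; scintillation count; IC50 from curve.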

A further assay concerns the target T2, CLK2 (Homo sapiens, UniProt P49760).
T2 construct: GST-fusion or His-tag (not specified per kinase); purchased ProQinase GmbH; host or cells: Sf9 insect cells or E. coli (not specified per kinase)
Briefly: Radiometric protein kinase assay (33PanQinase Activity Assay), CLK2. The following applies: read-out: IC50 on CLK2 (most potent CLK2 inhibitors). As to the method: (§1) Assays were performed by ProQinase GmbH (Engesserstr. 4, D-79108 Freiburg, Germany. www.proqinase.com). The IC50 profile of all compounds was determined using 12 protein kinases (CDK2/cyclin E, CK1ε, CLK1, 2, 3, 4, DYRK1A, 1B, 2, 3, 4, GSK3β).
(§2) The compounds were provided as […] in 100% DMSO. Prior to testing, the 1 μM stock solutions were subjected to a serial, semi-logarithmic dilution using 100% DMSO as a solvent. […] In the process, 90 μl H2O were added to each well of each compound dilution plate. To minimize potential precipitation, the H2O was added to each plate only a few minutes before the transfer of the compound solutions into the assay plates. The plate was shaken thoroughly, resulting in a compound dilution plate/10% DMSO.
(§3) For the assays (see below), 5 μL solution from each well of the compound dilution plates/10% DMSO were transferred into the assay plates. The final volume of the assay was 50 μL. All compounds were tested at 10 final assay concentrations in the range from 10 μM to 30 nM. The final DMSO concentration in the reaction cocktails was 1% in all cases.
(§4) All protein kinases provided by ProQinase were expressed in Sf9 insect cells or in E. coli as recombinant GST-fusion proteins or His-tagged proteins, either as full-length or enzymatically active fragments. All kinases were produced from human cDNAs and purified by either GSH-affinity chromatography or immobilized metal. Affinity tags were removed from a number of kinases during purification. The purity of the protein kinases was examined by SDS-PAGE/Coomassie staining, the identity was checked by mass spectroscopy.
(§5) A radiometric protein kinase assay (33PanQinase® Activity Assay) was used for measuring the kinase activity of the 12 protein kinases. All kinase assays were performed in 96-well FlashPlates™ from PerkinElmer (Boston, MA, USA) in a 50 μL reaction volume. The reaction cocktail was pipetted in four steps in the following order: • 25 μL of assay buffer (standard buffer/[γ-^33P]-ATP), • 10 μL of ATP solution (in H2O), • 5 μL of test compound (in 10% DMSO), • 10 μL of enzyme/substrate mixture.
(§6) The reaction cocktails were incubated at 30° C. for 60 minutes. The reaction was stopped with 50 μL of 2% (v/v) H3PO4, plates were aspirated and washed two times with 200 μL 0.9% (w/v) NaCl. Incorporation of ^33Pi was determined with a microplate scintillation counter (Microbeta, Wallac). The IC50 values for all compounds were calculated from the dose response curves
(§7) As a parameter for assay quality, the Z′-factor (Zhang et al., J. Biomol. Screen. 2: 67-73, 1999) for the low and high controls of each assay plate (n=8) was used. ProQinase's criterion for repetition of an assay plate is a Z′-factor below 0.4 (Iversen et al., J. Biomol. Screen. 3: 247-252, 2006).

A further assay concerns the target T3, DYRK1B (Homo sapiens, UniProt Q9Y463).
T3 construct: GST-fusion or His-tag (not specified per kinase); purchased ProQinase GmbH; host or cells: Sf9 insect cells or E. coli (not specified per kinase)
Briefly: Radiometric protein kinase assay (33PanQinase Activity Assay), DYRK1B. The following applies: read-out: IC50 on DYRK1B (most potent DYRK1B inhibitors). As to the method: as §1, §2, §3, §4, §5, §6, §7

In another assay the target is T4, DYRK4 (Homo sapiens, UniProt Q9NR20).
T4 construct: GST-fusion or His-tag (not specified per kinase); purchased ProQinase GmbH; host or cells: Sf9 insect cells or E. coli (not specified per kinase)
T4 sequence (Q9NR20 1-520): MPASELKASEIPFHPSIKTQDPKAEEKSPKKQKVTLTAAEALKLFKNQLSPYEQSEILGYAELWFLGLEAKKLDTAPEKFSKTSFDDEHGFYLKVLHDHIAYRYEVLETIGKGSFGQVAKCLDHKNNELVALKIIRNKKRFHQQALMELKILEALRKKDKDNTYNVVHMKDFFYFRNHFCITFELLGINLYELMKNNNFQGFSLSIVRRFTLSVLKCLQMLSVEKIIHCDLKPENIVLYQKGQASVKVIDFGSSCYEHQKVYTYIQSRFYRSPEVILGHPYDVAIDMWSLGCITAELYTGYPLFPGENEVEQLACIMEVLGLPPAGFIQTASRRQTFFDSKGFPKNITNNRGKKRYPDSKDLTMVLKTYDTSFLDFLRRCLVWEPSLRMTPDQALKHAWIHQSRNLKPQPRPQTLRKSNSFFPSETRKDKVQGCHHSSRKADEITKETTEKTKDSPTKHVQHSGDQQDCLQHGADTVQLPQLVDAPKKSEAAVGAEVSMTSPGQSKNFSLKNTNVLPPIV
Description: Radiometric protein kinase assay (33PanQinase Activity Assay), DYRK4. The following applies: read-out: IC50 on DYRK4 (most potent DYRK4 inhibitors). On the procedure:
as §1, §2
For the assays (see below), 5 μL solution from each well of the compound dilution plates/10% DMSO were transferred into the assay plates. The final volume of the assay was 50 μL. All compounds were tested at 10 final assay concentrations in the range from 10 μM to 30 nM. The final DMSO concentration in the reaction cocktails was 1% in all cases. […]
The reaction cocktails were incubated at 30° C. for 60 minutes. […] Incorporation of ^33Pi was determined with a microplate scintillation counter (Microbeta, Wallac). The IC50 values for all compounds were calculated from the dose response curves […]

T3 sequence (Q9Y463 whole entry, the tested form may be a part): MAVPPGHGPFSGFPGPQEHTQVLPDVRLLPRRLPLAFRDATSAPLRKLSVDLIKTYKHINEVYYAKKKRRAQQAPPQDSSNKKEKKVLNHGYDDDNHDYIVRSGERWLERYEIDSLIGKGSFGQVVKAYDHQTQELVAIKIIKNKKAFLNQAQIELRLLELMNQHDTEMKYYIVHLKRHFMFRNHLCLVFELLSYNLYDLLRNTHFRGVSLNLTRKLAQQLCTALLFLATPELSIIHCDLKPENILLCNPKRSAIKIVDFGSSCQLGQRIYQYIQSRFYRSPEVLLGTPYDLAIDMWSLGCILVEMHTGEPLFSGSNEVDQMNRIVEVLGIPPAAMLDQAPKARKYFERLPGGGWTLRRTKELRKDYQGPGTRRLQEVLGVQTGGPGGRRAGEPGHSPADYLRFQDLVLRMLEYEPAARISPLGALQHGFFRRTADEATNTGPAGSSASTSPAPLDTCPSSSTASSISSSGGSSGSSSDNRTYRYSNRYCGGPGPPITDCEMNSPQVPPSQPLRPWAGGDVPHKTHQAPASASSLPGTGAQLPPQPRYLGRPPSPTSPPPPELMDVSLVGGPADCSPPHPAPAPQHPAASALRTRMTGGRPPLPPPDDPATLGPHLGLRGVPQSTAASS
T2 sequence (P49760 whole entry, the tested form may be a part): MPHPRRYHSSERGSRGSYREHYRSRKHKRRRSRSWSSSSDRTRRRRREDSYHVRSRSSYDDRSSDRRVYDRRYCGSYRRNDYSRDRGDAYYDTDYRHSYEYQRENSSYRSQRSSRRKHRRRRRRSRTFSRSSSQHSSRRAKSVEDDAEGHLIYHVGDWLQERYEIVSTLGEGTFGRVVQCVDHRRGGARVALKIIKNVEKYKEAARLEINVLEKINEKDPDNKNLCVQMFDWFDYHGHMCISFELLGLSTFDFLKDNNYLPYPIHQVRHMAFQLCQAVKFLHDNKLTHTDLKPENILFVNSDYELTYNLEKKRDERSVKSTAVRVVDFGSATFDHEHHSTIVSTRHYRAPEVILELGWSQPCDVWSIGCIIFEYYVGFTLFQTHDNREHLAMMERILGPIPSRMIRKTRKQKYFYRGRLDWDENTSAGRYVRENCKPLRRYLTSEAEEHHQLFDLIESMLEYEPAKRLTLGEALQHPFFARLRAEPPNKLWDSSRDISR

For `O=C1NC(NC23CC4CC(CC(O)(C4)C2)C3)=N/C1=C\c1ccc2ncccc2c1` [Compound 50, (4Z)-2-[(3-hydroxy-1-adamantyl)amino]-4-(6-quinolylmethylene)-1H-imidazol-5-one], the IC50 was 10 to 25 nM on CLK1 (IC50 class A to E); 10 to 25 nM on CLK1 (class by IC50 on CLK1, from dose-response curves); at most 100 nM at CLK2; at most 10 nM at DYRK1B; at most 300 nM on DYRK4.
